Measured values from patent US9249114B2, “Thiazole derivatives” (Merck Patent GmbH, priority 2011, dated 2016).

Tests used:
phospho-IRF3 Ser 386 = experiment: Cell test: dose response inhibition of phospho-IRF3 Ser 386 in MDA-MB-468 cells; format: cell-based; details: Homo sapiens, Poly(I:C) stimulation, read-out: IC50 of reference inhibitor in phospho-IRF3 cell assay
Description: Cell Test Dose Response Inhibition of Phospho-IRF3 […] cell/MDAMB468/INH/PHOS/IMAG/pIRF3 1. Scope Although TBK1 and IKKε are best known as key players in the innate immune response, recent findings have pointed towards a role for TBK1 and IKKi in Ras-induced oncogenic transformation. TBK1 was identified as a RalB effector in the Ras-like (Ral)-guanine nucleotide exchange factor (GEF) pathway that is required for Ras-induced transformation. TBK1 directly activates IRF3 which, upon phosphorylation, homodimerizes and translocates to the nucleus where it activates processes involved with inflammation, immune regulation, cell survival and proliferation. This assay has been devised in order to assess the efficacy/potency of TBK1/IKKε inhibitor compounds based on the immunocytochemical detection of nuclear localised phospho-IRF3, a target directly downstream of TBK1. […] 2. Assay Overview Day 1: MDA-MB-468 cells are detached with HyQ-Tase, counted, and seeded into a 384-well clear bottom TC-surface plate at density of 10,000 cells per well in a total volume of 35 ul complete medium. Alternatively cells are directly seeded from frozen vials. […] Day 3: The primary antibody is washed off, an AlexaFluor488-conjugated secondary is added, cells are counterstained with propidium iodide followed by image acquisition on IMX Ultra high content reader. […]

[1] = molecular target: TANK binding kinase (TBK1) (Homo sapiens (Human), UniProt Q9UHD2); experiment: TBK1 enzyme assay (384-well Flashplate kinase assay); format: biochemical; details: 10 μM ATP, 120 Min at 30° C.
Chain of TANK binding kinase (TBK1) (Q9UHD2 whole entry): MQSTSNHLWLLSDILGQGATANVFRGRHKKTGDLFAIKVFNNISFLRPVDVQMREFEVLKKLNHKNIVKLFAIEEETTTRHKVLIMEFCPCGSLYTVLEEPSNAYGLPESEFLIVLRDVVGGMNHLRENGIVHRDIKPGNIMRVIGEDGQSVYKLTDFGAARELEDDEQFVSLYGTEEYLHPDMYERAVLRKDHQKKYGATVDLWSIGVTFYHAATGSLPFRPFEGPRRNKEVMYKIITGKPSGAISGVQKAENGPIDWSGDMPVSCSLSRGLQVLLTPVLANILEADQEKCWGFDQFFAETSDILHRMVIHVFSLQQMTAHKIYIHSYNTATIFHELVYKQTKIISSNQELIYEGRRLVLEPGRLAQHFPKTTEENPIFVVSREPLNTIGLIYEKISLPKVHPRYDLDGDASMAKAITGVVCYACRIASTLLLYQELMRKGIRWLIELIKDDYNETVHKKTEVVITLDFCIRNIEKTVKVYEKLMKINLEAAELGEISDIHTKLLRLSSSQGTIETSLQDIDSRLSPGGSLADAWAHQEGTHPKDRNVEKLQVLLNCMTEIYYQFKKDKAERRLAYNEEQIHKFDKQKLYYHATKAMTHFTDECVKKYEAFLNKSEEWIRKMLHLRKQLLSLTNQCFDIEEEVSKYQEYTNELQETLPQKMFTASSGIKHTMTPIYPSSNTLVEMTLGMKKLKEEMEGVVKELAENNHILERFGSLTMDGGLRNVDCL
Description: Test for the Inhibition of TBK1
The kinase assay is performed as 384-well Flashplate assay (for e.g. Topcount measurement. 0.6 nM TANK binding kinase (TBK1), 800 nM biotinylated MELK-derived peptide (Biotin-Ah-Ah-[…]) SEQ ID NO: 2 and 10 μM ATP (spiked with 0.25 μCi ^33P-ATP/well) are incubated in a total volume of 50 μl (10 mM MOPS, 10 mM Mg-acetat, 0.1 mM EGTA, 1 mM DTT, 0.02% Brij35, 0.1% BSA, pH 7.5) with or without test compound for 120 Min at 30° C. The reaction is stopped with 25 μl 200 mM EDTA. After 30 Min at room temperature the liquid is removed and each well washed thrice with 100 μl 0.9% sodium chloride solution. Nonspecific reaction is determined in presence of 100 nM Staurosporine. Radioactivity is measured in a Topcount (PerkinElmer). Results (e.g. IC50-values) are calculated with program tools provided by the IT-department (e.g. AssayExplorer, Symyx).

IKKε = IKKε (Homo sapiens (Human), UniProt Q14164); experiment: IKKε kinase assay (384-well Flashplate); format: biochemical; details: 10 μM ATP, 2 hours at 30° C.; read-out: IKKε enzyme assay IC50
Chain of IKKε (Q14164 whole entry): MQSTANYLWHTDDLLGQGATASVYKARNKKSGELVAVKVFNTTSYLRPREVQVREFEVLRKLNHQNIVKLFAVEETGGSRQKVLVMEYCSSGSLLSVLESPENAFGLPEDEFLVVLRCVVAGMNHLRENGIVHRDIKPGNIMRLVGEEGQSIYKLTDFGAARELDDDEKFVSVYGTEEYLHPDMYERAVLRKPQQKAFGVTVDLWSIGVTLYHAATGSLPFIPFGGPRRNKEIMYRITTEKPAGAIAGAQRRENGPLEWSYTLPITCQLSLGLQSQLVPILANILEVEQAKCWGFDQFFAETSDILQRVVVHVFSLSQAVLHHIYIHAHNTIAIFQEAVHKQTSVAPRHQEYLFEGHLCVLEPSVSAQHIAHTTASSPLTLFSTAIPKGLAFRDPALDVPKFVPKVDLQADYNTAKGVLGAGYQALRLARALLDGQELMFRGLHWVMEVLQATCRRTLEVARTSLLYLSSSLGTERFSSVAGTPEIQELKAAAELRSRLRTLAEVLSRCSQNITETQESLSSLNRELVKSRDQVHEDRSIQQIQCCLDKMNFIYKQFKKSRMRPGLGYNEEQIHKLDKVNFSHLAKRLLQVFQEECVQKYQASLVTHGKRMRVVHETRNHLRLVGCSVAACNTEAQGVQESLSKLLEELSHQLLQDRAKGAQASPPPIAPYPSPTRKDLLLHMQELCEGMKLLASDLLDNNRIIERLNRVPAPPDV
Description: Test for the Inhibition of IKKε
IKKε—Kinase Assay (IKKepsilon)
The kinase assay is performed either as 384-well Flashplate assay (for e.g. Topcount measurement). […] The reaction is stopped with 25 μl 200 mM EDTA. After 30 Min at room temperature the liquid is removed and each well washed thrice with 100 μl 0.9% sodium chloride solution. […] Radioactivity is measured with Topcount (PerkinElmer). Results (e.g. IC50-values) are calculated with program tools provided by the IT-department (e.g. AssayExplorer, Symyx).

SMILES | IC50 (phospho-IRF3 Ser 386) [nM] | IC50 [1] [nM] | IC50 (IKKε) [nM]
O=C(NCCCNc1nc(Nc2cccc(NC(=O)N3CCCC3)c2)ncc1I)c1cccs1 [BX-795] | 200 to 800 | – | –
CN1CCN(Cc2ccc(C(=O)Nc3sc(-c4ccncc4Br)nc3C(N)=O)cc2)CC1 [Compound A18, 2-(3-bromo-pyridin-4-yl)-5-[4-(4-methyl-piperazin-1-ylmethyl)-benzoylamino]-thiazole-4-carboxylic acid amide] | – | 310 | 190
NC(=O)c1nc(-c2ccncc2)sc1NC(=O)c1cn[nH]c1 [Compound A42, 5-[(1H-pyrazole-4-carbonyl)-amino]-2-pyridin-4-yl-thiazole-4-carboxylic acid amide] | – | 2700 | 730
NC(=O)c1nc(-c2ccncc2)sc1NC(=O)c1ccc(N2CCOCC2)nc1 [Compound A43, N-(4-carbamoyl-2-pyridin-4-yl-thiazol-5-yl)-6-morpholin-4-yl-nicotinamide] | – | 7300 | 2000
CN(C)c1ccc(C(=O)Nc2sc(-c3ccncc3)nc2C(N)=O)cc1 [Compound A57, 5-{[4-(dimethylamino)benzoyl]amino}-2-pyridin-4-yl-1,3-thiazole-4-carboxamide] | – | 1800 | 1600
NC(=O)c1nc(-c2ccncc2)sc1NC(=O)c1ccc(N)cc1 [Compound A58, 5-[(4-aminobenzoyl)amino]-2-pyridin-4-yl-1,3-thiazole-4-carboxamide] | – | 110 | 180
Cn1cccc1C(=O)Nc1sc(-c2ccncc2)nc1C(N)=O [Compound A59, 5-{[(1-methyl-1H-pyrrol-2-yl)carbonyl]amino}-2-pyridin-4-yl-1,3-thiazole-4-carboxamide] | – | 400 | 1200
NC(=O)c1nc(-c2ccncc2)sc1NC(=O)c1ccco1 [Compound A60, 5-(2-furoylamino)-2-pyridin-4-yl-1,3-thiazole-4-carboxamide] | – | 3700 | 6300
NC(=O)c1nc(-c2ccncc2)sc1NC(=O)c1ccc[nH]1 [Compound A61, 2-pyridin-4-yl-5-[(1H-pyrrol-2-ylcarbonyl)amino]-1,3-thiazole-4-carboxamide] | – | 120 | 140
NC(=O)c1nc(-c2ccncc2)sc1NC(=O)c1cc[nH]n1 [Compound A63, 5-[(1H-pyrazol-3-ylcarbonyl)amino]-2-pyridin-4-yl-1,3-thiazole-4-carboxamide] | – | 2700 | 7300
NC(=O)c1nc(-c2ccncc2)sc1NC(=O)c1ccsc1 [Compound A65, 2-pyridin-4-yl-5-[(3-thienylcarbonyl)amino]-1,3-thiazole-4-carboxamide] | – | 200 | 480

Second part, the compound after the results:

IC50 (phospho-IRF3 Ser 386) [nM] | IC50 [1] [nM] | IC50 (IKKε) [nM] | SMILES
– | 1400 | 140 | CN1CCN(Cc2ccc(C(=O)Nc3sc(-c4ccncc4C(F)(F)F)nc3C(N)=O)cc2)CC1 [Compound A17, 5-[4-(4-methyl-piperazin-1-ylmethyl)-benzoylamino]-2-(3-trifluoromethyl-pyridin-4-yl)-thiazole-4-carboxylic acid amide]
– | 370 | 280 | CN1CCN(Cc2ccc(C(=O)Nc3sc(-c4ccncc4F)nc3C(N)=O)cc2)CC1 [Compound A19, 2-(3-fluoro-pyridin-4-yl)-5-[4-(4-methyl-piperazin-1-ylmethyl)-benzoylamino]-thiazole-4-carboxylic acid amide]
– | 640 | 630 | CN1CCN(Cc2ccc(C(=O)Nc3sc(-c4ccncc4Cl)nc3C(N)=O)cc2)CC1 [Compound A20, 2-(3-chloro-pyridin-4-yl)-5-[4-(4-methyl-piperazin-1-ylmethyl)-benzoylamino]-thiazole-4-carboxylic acid amide]
– | 46 | 14 | COc1cnccc1-c1nc(C(N)=O)c(NC(=O)c2ccc(CN3CCN(C)CC3)cc2)s1 [Compound A21, 2-(3-methoxy-pyridin-4-yl)-5-[4-(4-methyl-piperazin-1-ylmethyl)-benzoylamino]-thiazole-4-carboxylic acid amide]
– | 350 | 300 | Cc1cnccc1-c1nc(C(N)=O)c(NC(=O)c2ccc(CN3CCN(C)CC3)cc2)s1 [Compound A22, 2-(3-methyl-pyridin-4-yl)-5-[4-(4-methyl-piperazin-1-ylmethyl)-benzoylamino]-thiazole-4-carboxylic acid amide]
– | 95 | 260 | NC(=O)c1nc(-c2ccncc2)sc1NC(=O)c1ccc(CN2CCNCC2)cc1 [Compound A24, 5-(4-piperazin-1-ylmethyl-benzoylamino)-2-pyridin-4-yl-thiazole-4-carboxylic acid amide]
– | 100 | 31 | CN1CCC(Cc2ccc(C(=O)Nc3sc(-c4ccncc4)nc3C(N)=O)cc2)CC1 [Compound A26, 5-[4-(1-methyl-piperidin-4-ylmethyl)-benzoylamino]-2-pyridin-4-yl-thiazole-4-carboxylic acid amide]
– | 140 | 100 | CC(=O)N1CCN(Cc2ccc(C(=O)Nc3sc(-c4ccncc4)nc3C(N)=O)cc2)CC1 [Compound A27, 5-[4-(4-acetyl-piperazin-1-ylmethyl)-benzoylamino]-2-pyridin-4-yl-thiazole-4-carboxylic acid amide]
– | 710 | 200 | CN1CCN(Cc2ccc(C(=O)Nc3sc(-c4ccncc4)nc3C(N)=O)cc2)CC1 [Compound A37, 5-[4-(4-methyl-piperazin-1-ylmethyl)-benzoylamino]-2-pyridin-4-yl-thiazole-4-carboxylic acid amide]
– | 1250 | 280 | CN(C)Cc1ccc(C(=O)Nc2sc(-c3ccncc3)nc2C(N)=O)cc1 [Compound A40, 5-(4-dimethylaminomethyl-benzoylamino)-2-pyridin-4-yl-thiazole-4-carboxylic acid amide]
– | 10000 | 5300 | Cc1ccc(C(=O)Nc2sc(-c3ccncc3)nc2C(N)=O)cc1 [Compound A55, 5-(4-methyl-benzoylamino)-2-pyridin-4-yl-thiazole-4-carboxylic acid amide]
